Experimental data taken from publication PMC4657098, “A Review of the Updated Pharmacophore for the Alpha 5 GABA(A) Benzodiazepine Receptor Model” (International Journal of Medicinal Chemistry, 2015).

Experiments:
5ht2b = target: T1, 5ht2b (Homo sapiens, UniProt P41595); assay: PDSP receptor binding, 5ht2b; details: PDSP primary screen at 10 µM
T1 construct: purchased NIMH PDSP (Psychoactive Drug Screening Program, Roth lab, Case Western Reserve)

M3 = target: T2, M3 (Homo sapiens, UniProt P20309); assay: PDSP receptor binding, M3; details: PDSP primary screen at 10 µM
T2 construct: purchased NIMH PDSP (Psychoactive Drug Screening Program, Roth lab, Case Western Reserve)

5ht5a = target: T3, 5ht5a (Homo sapiens, UniProt P47898); assay: PDSP receptor binding, 5ht5a; details: PDSP primary screen at 10 µM
T3 construct: purchased NIMH PDSP (Psychoactive Drug Screening Program, Roth lab, Case Western Reserve)

H4 = target: T4, H4 (Homo sapiens, UniProt Q9H3N8); assay: PDSP receptor binding, H4; details: PDSP primary screen at 10 µM
T4 construct: purchased NIMH PDSP (Psychoactive Drug Screening Program, Roth lab, Case Western Reserve)

α2C = target: T5, α2C (Homo sapiens, UniProt P18825); assay: PDSP receptor binding, α2C; details: PDSP primary screen at 10 µM
T5 construct: purchased NIMH PDSP (Psychoactive Drug Screening Program, Roth lab, Case Western Reserve)

5ht1b = target: T6, 5ht1b (Homo sapiens, UniProt P28222); assay: PDSP receptor binding, 5ht1b; details: PDSP primary screen at 10 µM
T6 construct: purchased NIMH PDSP (Psychoactive Drug Screening Program, Roth lab, Case Western Reserve)

5ht6 = target: T7, 5ht6 (Homo sapiens, UniProt P50406); assay: PDSP receptor binding, 5ht6; details: PDSP primary screen at 10 µM
T7 construct: purchased NIMH PDSP (Psychoactive Drug Screening Program, Roth lab, Case Western Reserve)

D2 = target: T8, D2 (Homo sapiens, UniProt P14416); assay: PDSP receptor binding, D2; details: PDSP primary screen at 10 µM
T8 construct: purchased NIMH PDSP (Psychoactive Drug Screening Program, Roth lab, Case Western Reserve)

M1 = target: T9, M1 (Homo sapiens, UniProt P11229); assay: PDSP receptor binding, M1; details: PDSP primary screen at 10 µM
T9 construct: purchased NIMH PDSP (Psychoactive Drug Screening Program, Roth lab, Case Western Reserve)

H3 = target: T10, H3 (Homo sapiens, UniProt Q9Y5N1); assay: PDSP receptor binding, H3; details: PDSP primary screen at 10 µM
T10 construct: purchased NIMH PDSP (Psychoactive Drug Screening Program, Roth lab, Case Western Reserve)

5ht1d = target: T11, 5ht1d (Homo sapiens, UniProt P28221); assay: PDSP receptor binding, 5ht1d; details: PDSP primary screen at 10 µM
T11 construct: purchased NIMH PDSP (Psychoactive Drug Screening Program, Roth lab, Case Western Reserve)

NET = target: T12, NET (Homo sapiens, UniProt P23975); assay: PDSP receptor binding, NET; details: PDSP primary screen at 10 µM
T12 construct: purchased NIMH PDSP (Psychoactive Drug Screening Program, Roth lab, Case Western Reserve)

mice = details: cited from earlier work
α1β3γ2 GABAA/BzR = α1β3γ2 GABAA/BzR (Homo sapiens, UniProt P14867+P18507); assay: Competition binding to HEK cell membranes, α1β3γ2; design: expressed in transfected cells; details: Figure 5; read-out: Ki α1
D3 = target: T13, D3 (Homo sapiens, UniProt P35462); assay: PDSP receptor binding, D3; details: PDSP primary screen at 10 µM
T13 construct: purchased NIMH PDSP (Psychoactive Drug Screening Program, Roth lab, Case Western Reserve)

D5 = target: T14, D5 (Homo sapiens, UniProt P21918); assay: PDSP receptor binding, D5; details: PDSP primary screen at 10 µM
T14 construct: purchased NIMH PDSP (Psychoactive Drug Screening Program, Roth lab, Case Western Reserve)

Beta1 = target: T15, Beta1 (Homo sapiens, UniProt P08588); assay: PDSP receptor binding, Beta1; details: PDSP primary screen at 10 µM
T15 construct: purchased NIMH PDSP (Psychoactive Drug Screening Program, Roth lab, Case Western Reserve)

M2 = target: T16, M2 (Homo sapiens, UniProt P08172); assay: PDSP receptor binding, M2; details: PDSP primary screen at 10 µM
T16 construct: purchased NIMH PDSP (Psychoactive Drug Screening Program, Roth lab, Case Western Reserve)

α2β3γ2 GABAA/BzR = α2β3γ2 GABAA/BzR (Homo sapiens, UniProt P18507+P47869); assay: Competition binding to HEK cell membranes, α2β3γ2; design: expressed in transfected cells; details: Figure 5; read-out: Ki α2
H2 = target: T17, H2 (Homo sapiens, UniProt P25021); assay: PDSP receptor binding, H2; details: PDSP primary screen at 10 µM
T17 construct: purchased NIMH PDSP (Psychoactive Drug Screening Program, Roth lab, Case Western Reserve)

DOR = target: T18, DOR (Homo sapiens, UniProt P41143); assay: PDSP receptor binding, DOR; details: PDSP primary screen at 10 µM
T18 construct: purchased NIMH PDSP (Psychoactive Drug Screening Program, Roth lab, Case Western Reserve)

Imidaz oline = assay: PDSP receptor binding, Imidazoline; details: PDSP primary screen at 10 µM
5ht3 = target: T19, 5ht3 (Homo sapiens, UniProt P46098); assay: PDSP receptor binding, 5ht3; details: PDSP primary screen at 10 µM
T19 construct: purchased NIMH PDSP (Psychoactive Drug Screening Program, Roth lab, Case Western Reserve)

5ht2a = target: T20, 5ht2a (Homo sapiens, UniProt P28223); assay: PDSP receptor binding, 5ht2a; details: PDSP primary screen at 10 µM
T20 construct: purchased NIMH PDSP (Psychoactive Drug Screening Program, Roth lab, Case Western Reserve)

SERT = target: T21, SERT (Homo sapiens, UniProt P31645); assay: PDSP receptor binding, SERT; details: PDSP primary screen at 10 µM
T21 construct: purchased NIMH PDSP (Psychoactive Drug Screening Program, Roth lab, Case Western Reserve)

α5β3γ2 GABAA receptor = target: T22, α5β3γ2 GABAA receptor (Homo sapiens, UniProt P18507+P31644); assay: Oocyte electrophysiology, α5β3γ2; assay type: cell-based
T22 construct: expressed in transfected cells; host or cells: Xenopus oocytes

CCc1ccc2c(c1)C(=O)N(C)Cc1c(C(=O)OCCCOC(=O)c3ncn4c3CN(C)C(=O)c3cc(CC)ccc3-4)ncn1-2 [XLi-356 (10), 1,3-Bis(8-ethyl-5,6-dihydro-5-methyl-6-oxo-4H-imidazo[1,5a][1,4]benzodiazepine-3-carboxy) propyl diester]
5ht2b binding (5ht2b): ∗ (“∗” indicates “primary missed” (<50% inhibition at 10 µM)) | M3 binding (M3): ∗ (“∗” indicates “primary missed” (<50% inhibition at 10 µM)) | 5ht5a binding (5ht5a): ∗ (“∗” indicates “primary missed” (<50% inhibition at 10 µM)) | H4 binding (H4): ∗ (“∗” indicates “primary missed” (<50% inhibition at 10 µM)) | α2C binding (α2C): ∗ (“∗” indicates “primary missed” (<50% inhibition at 10 µM)) | 5ht1b binding (5ht1b): ∗ (“∗” indicates “primary missed” (<50% inhibition at 10 µM)) | 5ht6 binding (5ht6): ∗ (“∗” indicates “primary missed” (<50% inhibition at 10 µM)) | D2 binding (D2): ∗ (“∗” indicates “primary missed” (<50% inhibition at 10 µM)) | M1 binding (M1): ∗ (“∗” indicates “primary missed” (<50% inhibition at 10 µM)) | H3 binding (H3): ∗ (“∗” indicates “primary missed” (<50% inhibition at 10 µM)) | 5ht1d binding (5ht1d): ∗ (“∗” indicates “primary missed” (<50% inhibition at 10 µM)) | NET binding (NET): ∗ (“∗” indicates “primary missed” (<50% inhibition at 10 µM)) | freezing (contextual memory) after scopolamine (mice; 10 mg/kg, scopolamine 1 mg/kg): attenuated the impairment of memory | reversal of scopolamine induced memory deficits (mice; mice): potently reverse scopolamine induced memory deficits | Ki (α1β3γ2 GABAA/BzR): 1.85 µM | D3 binding (D3): ∗ (“∗” indicates “primary missed” (<50% inhibition at 10 µM)) | D5 binding (D5): ∗ (“∗” indicates “primary missed” (<50% inhibition at 10 µM)) | Beta1 binding (Beta1): ∗ (“∗” indicates “primary missed” (<50% inhibition at 10 µM)) | M2 binding (M2): ∗ (“∗” indicates “primary missed” (<50% inhibition at 10 µM)) | Ki (α2β3γ2 GABAA/BzR): 4.2 µM | H2 binding (H2): ∗ (“∗” indicates “primary missed” (<50% inhibition at 10 µM)) | DOR binding (DOR): ∗ (“∗” indicates “primary missed” (<50% inhibition at 10 µM)) | Imidaz oline binding (Imidaz oline): ∗ (“∗” indicates “primary missed” (<50% inhibition at 10 µM)) | 5ht3 binding (5ht3): ∗ (“∗” indicates “primary missed” (<50% inhibition at 10 µM)) | 5ht2a binding (5ht2a): ∗ (“∗” indicates “primary missed” (<50% inhibition at 10 µM)) | SERT binding (SERT): ∗ (“∗” indicates “primary missed” (<50% inhibition at 10 µM)) | efficacy type at the α5 subtype (α5β3γ2 GABAA receptor): weak agonist-antagonist
